These results are taken from ChEMBL document CHEMBL1156014, “Synthesis of antibacterial pseudopeptides with less hemolytic activity from a cytotoxic peptide and their pH-dependent activity” (Bioorg Med Chem Lett, 2009).

In data set [1] the test system is Escherichia coli. The experiment in a line: Antibacterial activity against Escherichia coli ATCC 25922 at pH 7.4. It counts as functional.
The test system of data set [2] is Staphylococcus aureus. The data set can be described thus: Antibacterial activity against Staphylococcus aureus ATCC 6538 at pH 8.4. Format: functional.
The test system of data set [3] is Escherichia coli. The experiment in a line: Antibacterial activity against Escherichia coli ATCC 25922 at pH 8.4. Format: functional.
Data set [4] relates to Micrococcus luteus. The experiment in a line: Antibacterial activity against Micrococcus luteus ATCC 9341 at pH 8.4. Format: functional.
In data set [5] the test system is Micrococcus luteus. The data set can be described thus: Antibacterial activity against Micrococcus luteus ATCC 9341 at pH 7.4. Format: functional.
The subject of data set [6] is Staphylococcus aureus. The data set can be described thus: Antibacterial activity against Staphylococcus aureus ATCC 6538 at pH 7.4. Format: functional.
The test system of data set [7] is Pseudomonas aeruginosa. The experiment in a line: Antibacterial activity against Pseudomonas aeruginosa ATCC 9027 at pH 7.4. It counts as functional.
In data set [8] the test system is Pseudomonas aeruginosa. The experiment in a line: Antibacterial activity against Pseudomonas aeruginosa ATCC 9027 at pH 8.4. Format: functional.
A short description of data set [9]: Permeability across Escherichia coli large unilamellar vesicles assessed as calcein entrapped leakage from phosphatidylglycerol/phosphatidylcholine at pH 8.4. It counts as ADME.
Data set [10] is described as follows: Permeability across Escherichia coli large unilamellar vesicles assessed as calcein entrapped leakage from phosphatidylglycerol/phosphatidylcholine at pH 7.4. Format: ADME.
Data set [11] in a line: Toxicity in human erythrocytes assessed as hemolytic activity up to 200 ug/ml at pH 7.4 after 1 hr. It counts as cell-based. The note with it: erythrocyte, pH 7.4, 1 h.
The nature of data set [12]: Permeability across Escherichia coli large unilamellar vesicles assessed as calcein entrapped leakage from phosphatidylglycerol/phosphatidylcholine at 7.5 uM at pH 7.4. Format: ADME. The note with it: pH 7.4, 7.5 µM.
A short description of data set [13]: Permeability across Escherichia coli large unilamellar vesicles assessed as calcein entrapped leakage from phosphatidylglycerol/phosphatidylcholine at 15 uM at pH 8.4. The note with it: pH 8.4, 15 µM. It counts as ADME.

≈ marks a conversion by molar mass, not a printed value. Where a SMILES comes first, the peptide text is derived from it. The star is where a group is joined. X2 = CC(C)C[C@H](NC[C@H](CCCCN)N*)C(=O)N[C@@H](CC(C)C)C(=O)N[C@@H](CCCCN)C(N)=O

Take `CC(=O)N[C@@H](CCCCN)C(=O)N[C@@H](CC(C)C)C(=O)N[C@@H](CC(C)C)C(=O)N[C@@H](CC(C)C)C(=O)N[C@@H](CCCCN)C(=O)N[C@@H](CC(C)C)C(=O)N[C@@H](Cc1c[nH]c2ccccc12)C(=O)N[C@@H](CC(C)C)C(=O)N[C@@H](CCCCN)CN[C@@H](CC(C)C)C(=O)N[C@@H](CC(C)C)C(=O)N[C@@H](CCCCN)C(N)=O` (Ac-KLLLKLWL-X2): the MIC turned out to be 12.5 µg/mL (≈ 8.14 µM) in the data set with Escherichia coli [1]; 12.5 µg/mL (≈ 8.14 µM) in the data set with Staphylococcus aureus [2]; 25 µg/mL (≈ 16.3 µM) in the data set with Escherichia coli [3]; 6.25 µg/mL (≈ 4.07 µM) in the data set on Micrococcus luteus [4]; 6.25 µg/mL (≈ 4.07 µM) against Micrococcus luteus [5]; 6.25 µg/mL (≈ 4.07 µM) with Staphylococcus aureus [6]. Also, the MIC in the data set with Pseudomonas aeruginosa [7] and in the data set on Pseudomonas aeruginosa [8] was 50 µg/mL (≈ 32.5 µM) in each case. Further, the Activity result in [9] was “Dose-dependent effect”; in data set [10], “Dose-dependent effect”; in [11] it was “Not Active”.
On to Ac-KLLLKLWLKLLK-NH2, for which the Activity is 90% in data set [12], 80% in data set [13], “Dose-dependent effect” in data set [9] and “Dose-dependent effect” in data set [10]. Further, the MIC was 12.5 µg/mL with Escherichia coli [1]; 25 µg/mL with Staphylococcus aureus [2]; 50 µg/mL in the data set on Escherichia coli [3]; 6.25 µg/mL with Micrococcus luteus [4]; 6.25 µg/mL against Micrococcus luteus [5]; 6.25 µg/mL with Staphylococcus aureus [6]. In addition, the MIC in the data set on Pseudomonas aeruginosa [7] and against Pseudomonas aeruginosa [8] was 50 µg/mL in each case.

As usually defined, the MIC is the smallest concentration in the dilution series that meets the test's criterion for growth inhibition. Low readings indicate a more susceptible organism, high ones a less susceptible organism.
